What was measured:
[1] = target: T1, cGMP-dependent protein kinase 2 (Homo sapiens) (UniProt Q13237); test: Inhibition of human PRKG2 at 18.6 nM by HotSpot assay relative to control
T1 sequence (whole entry): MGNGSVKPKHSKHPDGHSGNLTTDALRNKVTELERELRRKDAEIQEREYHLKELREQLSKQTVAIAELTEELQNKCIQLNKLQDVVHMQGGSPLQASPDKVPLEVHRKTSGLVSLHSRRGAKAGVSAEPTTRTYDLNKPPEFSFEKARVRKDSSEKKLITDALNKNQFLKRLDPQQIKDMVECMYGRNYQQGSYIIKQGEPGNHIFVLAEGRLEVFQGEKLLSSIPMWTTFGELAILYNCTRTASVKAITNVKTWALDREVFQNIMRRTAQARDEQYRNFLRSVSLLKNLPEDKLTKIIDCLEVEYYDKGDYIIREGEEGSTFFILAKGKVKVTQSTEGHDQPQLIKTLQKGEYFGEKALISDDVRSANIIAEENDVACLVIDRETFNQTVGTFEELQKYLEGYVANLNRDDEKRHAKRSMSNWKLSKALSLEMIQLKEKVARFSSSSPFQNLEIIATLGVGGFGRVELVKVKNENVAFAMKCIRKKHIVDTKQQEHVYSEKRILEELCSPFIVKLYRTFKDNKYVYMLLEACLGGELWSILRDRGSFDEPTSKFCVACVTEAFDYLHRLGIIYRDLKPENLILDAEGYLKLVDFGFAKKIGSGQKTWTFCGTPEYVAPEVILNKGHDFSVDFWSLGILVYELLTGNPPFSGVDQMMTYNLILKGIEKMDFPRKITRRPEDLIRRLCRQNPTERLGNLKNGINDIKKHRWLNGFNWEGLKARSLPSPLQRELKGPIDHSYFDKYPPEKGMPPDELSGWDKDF

[2] = target: PAS domain-containing serine/threonine-protein kinase (Homo sapiens) (UniProt Q96RG2); test: Inhibition of human PASK at 18.6 nM by HotSpot assay relative to control
Homo sapiens = species on record: Homo sapiens; test: Inhibition of human CDK2/cyclin A at 18.6 nM by HotSpot assay relative to control
[3] = target: T2, Serine/threonine-protein kinase Sgk2 (Homo sapiens) (UniProt Q9HBY8); test: Inhibition of human SGK2 at 1.82 nM by HotSpot assay relative to control
T2 sequence (whole entry): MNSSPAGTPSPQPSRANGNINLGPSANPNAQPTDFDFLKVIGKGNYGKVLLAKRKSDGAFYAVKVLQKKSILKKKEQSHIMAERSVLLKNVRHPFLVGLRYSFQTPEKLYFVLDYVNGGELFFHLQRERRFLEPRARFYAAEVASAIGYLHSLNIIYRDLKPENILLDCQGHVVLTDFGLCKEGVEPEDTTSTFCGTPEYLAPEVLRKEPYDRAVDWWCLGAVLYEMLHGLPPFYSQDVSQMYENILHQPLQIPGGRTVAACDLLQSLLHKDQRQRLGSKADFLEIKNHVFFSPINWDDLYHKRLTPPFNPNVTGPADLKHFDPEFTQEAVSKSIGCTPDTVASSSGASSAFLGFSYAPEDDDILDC

Chain of PAS domain-containing serine/threonine-protein kinase (Homo sapiens) (Q96RG2 whole entry, the tested form may be a part): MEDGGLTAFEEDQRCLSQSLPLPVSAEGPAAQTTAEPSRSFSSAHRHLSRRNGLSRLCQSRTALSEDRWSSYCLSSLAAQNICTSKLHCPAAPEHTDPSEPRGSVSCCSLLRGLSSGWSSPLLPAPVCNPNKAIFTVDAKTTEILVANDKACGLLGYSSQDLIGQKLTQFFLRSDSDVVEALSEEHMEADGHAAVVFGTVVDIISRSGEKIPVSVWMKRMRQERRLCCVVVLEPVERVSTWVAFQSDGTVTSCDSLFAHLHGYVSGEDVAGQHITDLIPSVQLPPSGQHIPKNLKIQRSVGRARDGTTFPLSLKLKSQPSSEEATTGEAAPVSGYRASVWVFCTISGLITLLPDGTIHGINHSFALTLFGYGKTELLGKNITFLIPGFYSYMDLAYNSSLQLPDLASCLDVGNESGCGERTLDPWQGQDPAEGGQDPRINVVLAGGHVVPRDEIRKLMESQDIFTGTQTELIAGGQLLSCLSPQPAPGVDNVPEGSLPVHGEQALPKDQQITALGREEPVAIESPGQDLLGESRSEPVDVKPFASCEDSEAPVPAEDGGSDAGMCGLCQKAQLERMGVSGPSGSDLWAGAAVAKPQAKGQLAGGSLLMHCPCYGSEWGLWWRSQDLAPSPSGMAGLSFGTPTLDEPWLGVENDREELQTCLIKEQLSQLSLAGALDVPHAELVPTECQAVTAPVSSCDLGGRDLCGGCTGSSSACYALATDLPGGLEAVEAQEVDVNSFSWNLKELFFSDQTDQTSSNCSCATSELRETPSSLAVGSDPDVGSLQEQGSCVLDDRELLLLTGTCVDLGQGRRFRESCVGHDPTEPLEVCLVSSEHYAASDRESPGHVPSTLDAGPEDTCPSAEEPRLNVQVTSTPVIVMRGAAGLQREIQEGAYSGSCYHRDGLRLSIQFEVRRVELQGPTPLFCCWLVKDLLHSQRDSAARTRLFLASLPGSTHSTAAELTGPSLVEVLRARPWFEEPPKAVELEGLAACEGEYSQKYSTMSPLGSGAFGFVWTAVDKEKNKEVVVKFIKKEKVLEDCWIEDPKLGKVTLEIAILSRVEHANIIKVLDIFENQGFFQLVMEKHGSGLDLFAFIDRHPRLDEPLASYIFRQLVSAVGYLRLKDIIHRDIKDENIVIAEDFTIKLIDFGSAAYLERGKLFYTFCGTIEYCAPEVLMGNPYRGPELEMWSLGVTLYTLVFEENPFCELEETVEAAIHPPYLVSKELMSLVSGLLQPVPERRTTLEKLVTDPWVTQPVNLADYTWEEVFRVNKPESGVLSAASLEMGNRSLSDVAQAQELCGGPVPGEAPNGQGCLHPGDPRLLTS

`C[C@]1(O)C[C@@H](c2nc(-c3ccc4ccc(-c5ccccc5)nc4c3)c3c(N)nccn32)C1` was tested, and the inhibition [1] was -3.76%, the inhibition [2] was -4.72% and the inhibition (Homo sapiens) was -1.46%.

Compound `C[C@@]1(C(=O)Nc2ccc(F)nc2)CCCN1c1nc(Nc2cc(C3CC3)n[nH]2)c2cccn2n1` has an inhibition [3] of -0.21%.

Reference: ChEMBL document CHEMBL5653615 (J Biol Chem, 2013)
